Test results published in US20240115744A1, “FIBRIN-BINDING COMPOUNDS FOR IMAGING AND TREATMENT” (Collagen Medical, LLC, priority 2019, published 2024).
*1 amine or outer side, *2 acyl side, *3 side chain or, on linkers, in order; H or OH if unused. Where a SMILES comes first, the peptide text is derived from it. Bridges are numbered along the chain shown (N, C = ends). [ ]: non-standard residue; d: D form. The star is where a group is joined. NODAGA = O=C(O)CN1CCN(CC(=O)O)CCN(C(CCC(=O)*)C(=O)O)CC1; Tyr(3-Cl) = N[C@@H](Cc1ccc(O)c(Cl)c1)C(=O)O; X1 = O=C([C@@H]1CC(O)CN1[*:1])[*:2]

Assay: Radio-HPLC analysis of blood for identification of metabolites
Format: in vivo
Conditions: rat plasma 15 and 90 min after injection
Experimental: Adult male Wistar rats were anesthetized by isoflurane (1-2% in medical air). Body temperature was maintained at 37° C. using a thermo-regulated heating pad. The right femoral vein and artery were cannulated for compound injection and blood sampling, respectively. Endothelial injury was induced by crush injury to the right common carotid artery (1-2 cm proximal to the carotid bifurcation) by clamping the vessel with a hemostat for 5 minutes. Immediately following the surgical procedures, rats were placed in a micro-PET/CT scanner. Compound (200-600 μL) was injected, PET-CT images were acquired, and blood samples were drawn from the femoral artery prior to compound injection and at 2, 5, 10, 15, 30, 60, 90, 120 min post injection. Tissues were harvested at the end for ex vivo analyses.
Aliquots of the 15 and 90 min plasma samples were injected into a HPLC and fractions were collected each 30 seconds. The fractions counted were compared to pure compound injected into the same column in order to identify the number of metabolites and the fraction of intact compound circulating at each time point.

## CC[C@H](C)[C@H](NC(=O)[C@H](Cc1ccc(O)cc1)NC(=O)[C@@H]1CSSC[C@H](NC(=O)[C@@H](CCC(=O)O)NC(=O)[C@H](Cc2ccc(O)cc2)NC(=O)CCC(C(=O)O)N2CCN(CC(=O)O)CCN(CC(=O)O)CC2)C(=O)N2CC(O)C[C@H]2C(=O)N[C@@H](Cc2ccc(O)c(Cl)c2)C(=O)NCC(=O)N[C@@H](CC(C)C)C(=O)N1)C(=O)N[C@@H](CCC(N)=O)C(N)=O (stereo partly shown) [Compound ^68Ga-16, metal not drawn] ({NODAGA}-Y[dE]C[X1][Tyr(3-Cl)]GLCYIQ-NH2; disulfide 3-8)
  metabolites / intact compound in blood: rapidly formed metabolites
